Measured values published in US20230271941A1, “COMPOUNDS AND COMPOSITIONS FOR TREATING CONDITIONS ASSOCIATED WITH STING ACTIVITY” (IFM Due, Inc., priority 2020, published 2023).

What follows are compounds tested against T1, hSTING (Homo sapiens, UniProt Q86WV6, G230A/H232R/R293Q/R71H) (assay: STING reporter assay: THP1-Dual KO-IFNAR2 cells stimulated with 2′3′cGAMP, luciferase reporter activity). Conditions: 15 μM 2′3′cGAMP transfected with Lipofectamine 2000, 24 h, luciferase reporter (QUANTI-Luc).
T1 construct: host or cells: THP1-Dual KO-IFNAR2 cells
T1 sequence (Q86WV6 whole entry R71H/G230A/H232R/R293Q): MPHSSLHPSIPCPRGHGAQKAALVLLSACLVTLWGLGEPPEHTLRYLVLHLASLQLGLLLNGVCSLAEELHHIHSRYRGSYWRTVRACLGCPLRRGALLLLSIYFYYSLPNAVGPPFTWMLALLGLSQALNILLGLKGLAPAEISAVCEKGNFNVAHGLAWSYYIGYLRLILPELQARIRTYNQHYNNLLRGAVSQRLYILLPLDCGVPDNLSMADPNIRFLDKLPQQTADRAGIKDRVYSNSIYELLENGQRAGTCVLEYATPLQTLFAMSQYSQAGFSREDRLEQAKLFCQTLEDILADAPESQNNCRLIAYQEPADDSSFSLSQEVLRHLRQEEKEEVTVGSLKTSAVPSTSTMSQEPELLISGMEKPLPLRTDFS
Format: cell-based
Method: STING pathway activation by the compounds described herein was measured using THP1-Dual™ cells (KO-IFNAR2).
THP1-Dual™ KO-IFNAR2 Cells (obtained from invivogen) were maintained in RPMI, 10% FCS, 5 ml P/S, 2 mM L-glut, 10 mM Hepes, and 1 mM sodium pyruvate. Compounds were spotted in empty 384 well tissue culture plates (Greiner 781182) by Echo for a final concentration of 0.0017-100 μM. Cells were plated into the TC plates at 40 μL per well, 2×10E6 cells/mL. For activation with STING ligand, 2′3′cGAMP (MW 718.38, obtained from Invivogen), was prepared in Optimem media.
The following solutions were prepared for each 1×384 plate: • Solution A: 2 mL Optimem with one of the following stimuli: • 60 μL of 10 mM 2′3′cGAMP→150 μM stock • Solution B: 2 mL Optimem with 60 μL Lipofectamine 2000→Incubate 5 min at RT
2 mL of solution A and 2 ml Solution B was mixed and incubated for 20 min at room temperature (RT). 20 μL of transfection solution (A+B) was added on top of the plated cells, with a final 2′3′cGAMP concentration of 15 μM. The plates were then centrifuged immediately at 340 g for 1 minute, after which they were incubated at 37° C., 5% CO2, >98% humidity for 24 h. Luciferase reporter activity was then measured. EC50 values were calculated by using standard methods known in the art.
Luciferase reporter assay: 10 μL of supernatant from the assay was transferred to white 384-plate with flat bottom and squared wells. One pouch of QUANTI-Luc™ Plus was dissolved in 25 mL of water. 100 μL of QLC Stabilizer per 25 mL of QUANTI-Luc™Plus solution was added. 50 μL of QUANTI-Luc™ Plus/QLC solution per well was then added. Luminescence was measured on a Platereader (e.g., Spectramax I3X (Molecular Devices GF3637001)).
Luciferase reporter activity was then measured. EC50 values were calculated by using standard methods known in the art.
`Cc1cc(-n2cc(C(=O)Nc3c[nH]c4cc(F)c(F)cc34)nn2)cnc1OCC(F)(F)F` [Compound 165, N-(5,6-difluoro-1H-indol-3-yl)-1-(5-methyl-6-(2,2,2-trifluoroethoxy)pyridin-3-yl)-1H-1,2,3-triazole-4-carboxamide] showed an EC50 of 200 to 1000 nM.
In the case of `O=C(Nc1c[nH]c2ccc(Oc3ccccc3)cc12)c1cnn(Cc2ccc(C(F)(F)F)cc2)c1` [Compound 154, N-(5-phenoxy-1H-indol-3-yl)-1-(4-(trifluoromethyl)benzyl)-1H-pyrazole-4-carboxamide], the EC50 is reported as 40 to 200 nM.
Compound `N#Cc1cccc(-c2cc(C(=O)Nc3c[nH]c4cc(F)c(F)cc34)no2)c1` [Compound 123, 5-(3-cyanophenyl)-N-(5,6-difluoro-1H-indol-3-yl)isoxazole-3-carboxamide] has an EC50 of 200 to 1000 nM.
In the case of `COc1cc2[nH]cc(NC(=O)c3cnn(Cc4ccc(C(F)(F)F)cc4)c3)c2cn1` [Compound 126, N-(6-methoxy-1H-pyrrolo[3,2-c]pyridin-3-yl)-1-(4-(trifluoromethyl)benzyl)-1H-pyrazole-4-carboxamide], the EC50 is reported as 1000 to 5000 nM.
With `CC(C)n1cc(-c2cc(F)c3[nH]cc(NC(=O)c4cnn(Cc5ccc(C(F)(F)F)cc5)c4)c3c2)cn1` [Compound 146, N-(7-fluoro-5-(1-isopropyl-1H-pyrazol-4-yl)-1H-indol-3-yl)-1-(4-(trifluoromethyl)benzyl)-1H-pyrazole-4-carboxamide] the EC50 was 200 to 1000 nM.
`O=C(Nc1c[nH]c2cc(F)c(F)cc12)c1ccn(CCOc2cccnc2)n1` [Compound 147, N-(5,6-difluoro-1H-indol-3-yl)-1-(2-(pyridin-3-yloxy)ethyl)-1H-pyrazole-3-carboxamide] showed an EC50 of 5000 to 100000 nM.
With `O=C(Nc1c[nH]c2c(F)cncc12)c1ccn(Cc2ccc(C(F)(F)F)cc2)n1` [Compound 131, N-(7-fluoro-1H-pyrrolo[3,2-c]pyridin-3-yl)-1-(4-(trifluoromethyl)benzyl)-1H-pyrazole-3-carboxamide] the EC50 was 1000 to 5000 nM.
With `O=C(Nc1c[nH]c2cc(F)c(F)cc12)c1csc(Cc2ccccc2)n1` [Compound 112, 2-benzyl-N-(5,6-difluoro-1H-indol-3-yl)-1,3-thiazole-4-carboxamide] the EC50 was 1000 to 5000 nM.
`Cc1cc(Cn2cc(C(=O)Nc3c[nH]c4cc(F)c(F)cc34)cn2)cnc1OCC(F)(F)F` [Compound 163, N-(5,6-difluoro-1H-indol-3-yl)-1-((5-methyl-6-(2,2,2-trifluoroethoxy)pyridin-3-yl)methyl)-1H-pyrazole-4-carboxamide] gave an EC50 of 40 to 200 nM.
`Cc1cc(Cn2cc(C(=O)Nc3c[nH]c4ccc(Cl)cc34)cn2)cnc1OCC(F)(F)F` [Compound 160, N-(5-chloro-1H-indol-3-yl)-1-((5-methyl-6-(2,2,2-trifluoroethoxy)pyridin-3-yl)methyl)-1H-pyrazole-4-carboxamide] gave an EC50 of 40 to 200 nM.
Work on `O=C(Nc1c[nH]c2cc(F)c(F)cc12)c1cc(-c2ccccc2)[nH]n1` [Compound 175, N-(5,6-difluoro-1H-indol-3-yl)-5-phenyl-1H-pyrazole-3-carboxamide] yielded an EC50 of 200 to 1000 nM.
With `O=C(Nc1c[nH]c2cc(F)c(F)cc12)c1cc(Cc2ccc(C(F)(F)F)cc2)on1` [Compound 153, N-(5,6-difluoro-1H-indol-3-yl)-5-(4-(trifluoromethyl)benzyl)isoxazole-3-carboxamide] the EC50 was 200 to 1000 nM.
`O=C(Nc1c[nH]c2cc(F)c(F)cc12)c1cc(-c2ccc(Cl)cc2)no1` [Compound 171, 3-(4-chlorophenyl)-N-(5,6-difluoro-1H-indol-3-yl)isoxazole-5-carboxamide] showed an EC50 of 200 to 1000 nM.
With `Cn1nc(C(=O)Nc2c[nH]c3cc(F)c(F)cc23)cc1Cc1ccc(C(F)(F)F)cc1` [Compound 113, N-(5,6-difluoro-1H-indol-3-yl)-1-methyl-5-(4-(trifluoromethyl)benzyl)-1H-pyrazole-3-carboxamide] the EC50 was 200 to 1000 nM.
Compound `O=C(Nc1c[nH]c2cc(F)c(F)cc12)c1csc(-c2ccc(OC(F)(F)F)cc2)n1` [Compound 177, N-(5,6-difluoro-1H-indol-3-yl)-2-(4-(trifluoromethoxy)phenyl)thiazole-4-carboxamide] has an EC50 of 1000 to 5000 nM.
With `O=C(Nc1c[nH]c2ccc(-c3ccc(CO)c(F)c3)cc12)c1cn(Cc2ccc(C(F)(F)F)cc2)cn1` [Compound 137, N-(5-(3-fluoro-4-(hydroxymethyl)phenyl)-1H-indol-3-yl)-1-(4-(trifluoromethyl)benzyl)-1H-imidazole-4-carboxamide] the EC50 was 1000 to 5000 nM.
In the case of `Cc1cc(-c2cc(C(=O)Nc3c[nH]c4cc(F)c(F)cc34)n[nH]2)ccc1Cl` [Compound 164, 5-(4-chloro-3-methylphenyl)-N-(5,6-difluoro-1H-indol-3-yl)-1H-pyrazole-3-carboxamide], the EC50 is reported as 200 to 1000 nM.
`O=C(Nc1c[nH]c2cc(F)c(F)cc12)c1cn(-c2ccc(C(F)(F)F)cc2)nn1` [Compound 106, N-(5,6-difluoro-1H-indol-3-yl)-1-(4-(trifluoromethyl)phenyl)-1H-1,2,3-triazole-4-carboxamide] showed an EC50 of 200 to 1000 nM.
`O=C(Nc1c[nH]c2cc(F)c(F)cc12)c1cnn(CC2CCC(F)(F)CC2)c1` [Compound 122, N-(5,6-difluoro-1H-indol-3-yl)-1-((4,4-difluorocyclohexyl)methyl)-1H-pyrazole-4-carboxamide] gave an EC50 of 200 to 1000 nM.
`O=C(Nc1c[nH]c2ccc(F)cc12)c1cnn(Cc2ccc(C(F)(F)F)cc2)c1` [Compound 115, N-(5-fluoro-1H-indol-3-yl)-1-(4-(trifluoromethyl)benzyl)-1H-pyrazole-4-carboxamide] was tested, and the EC50 was 200 to 1000 nM.
`O=C(Nc1c[nH]c2cc(F)ccc12)c1cnn(Cc2ccc(C(F)(F)F)cc2)c1` [Compound 143, N-(6-fluoro-1H-indol-3-yl)-1-(4-(trifluoromethyl)benzyl)-1H-pyrazole-4-carboxamide] gave an EC50 of 200 to 1000 nM.
`O=C(Nc1c[nH]c2cc(F)c(F)cc12)c1cc(-c2ccncc2)[nH]n1` [Compound 176, N-(5,6-difluoro-1H-indol-3-yl)-5-(pyridin-4-yl)-1H-pyrazole-3-carboxamide] was tested, and the EC50 was 5000 to 100000 nM.
With `O=C(Nc1c[nH]c2cc(F)c(F)cc12)c1cc(-c2ccc(Cl)cc2)n[nH]1` [Compound 108, 3-(4-chlorophenyl)-N-(5,6-difluoro-1H-indol-3-yl)-1H-pyrazole-5-carboxamide] the EC50 was 200 to 1000 nM.
In the case of `O=C(Nc1c[nH]c2ccc(Cl)cc12)c1cn(-c2cnc(NCC(F)(F)F)c(F)c2)nn1` [Compound 158, N-(5-chloro-1H-indol-3-yl)-1-(5-fluoro-6-((2,2,2-trifluoroethyl)amino)pyridin-3-yl)-1H-1,2,3-triazole-4-carboxamide], the EC50 is reported as 200 to 1000 nM.
Work on `COc1cncc2c(NC(=O)c3cnn(Cc4ccc(C(F)(F)F)cc4)c3)c[nH]c12` [Compound 117, N-(7-methoxy-1H-pyrrolo[3,2-c]pyridin-3-yl)-1-(4-(trifluoromethyl)benzyl)-1H-pyrazole-4-carboxamide] yielded an EC50 of 5000 to 100000 nM.
`Cn1nc(C(=O)Nc2c[nH]c3cc(F)c(F)cc23)cc1-c1ccccc1` [Compound 172, N-(5,6-difluoro-1H-indol-3-yl)-1-methyl-5-phenyl-1H-pyrazole-3-carboxamide] showed an EC50 of 200 to 1000 nM.
`CC(C)(O)CCc1ncc(-n2cc(C(=O)Nc3c[nH]c4cc(F)c(F)cc34)nn2)cc1F` [Compound 179, N-(5,6-difluoro-1H-indol-3-yl)-1-[5-fluoro-6-(3-hydroxy-3-methylbutyl)pyridin-3-yl]-1H-1,2,3-triazole-4-carboxamide] gave an EC50 of 5000 to 100000 nM.
`COc1ccc2[nH]cc(NC(=O)c3ccn(Cc4ccc(C(F)(F)F)cc4)n3)c2n1` [Compound 134, N-(5-methoxy-1H-pyrrolo[3,2-b]pyridin-3-yl)-1-(4-(trifluoromethyl)benzyl)-1H-pyrazole-3-carboxamide] gave an EC50 of 1000 to 5000 nM.
In the case of `O=C(Nc1c[nH]c2cc(F)c(F)cc12)c1csc(-c2cccc(C(F)(F)F)c2)n1` [Compound 101, N-(5,6-difluoro-1H-indol-3-yl)-2-(3-(trifluoromethyl)phenyl)thiazole-4-carboxamide], the EC50 is reported as 200 to 1000 nM.
`O=C(Nc1c[nH]c2cc(F)c(F)cc12)c1cc(-c2ccc(F)cc2F)on1` [Compound 170, N-(5,6-difluoro-1H-indol-3-yl)-5-(2,4-difluorophenyl)isoxazole-3-carboxamide] was tested, and the EC50 was 200 to 1000 nM.
Compound `Cc1cc(C(=O)Nc2c[nH]c3cc(F)c(F)cc23)nn1Cc1ccc(C(F)(F)F)cc1` [Compound 114, N-(5,6-difluoro-1H-indol-3-yl)-5-methyl-1-(4-(trifluoromethyl)benzyl)-1H-pyrazole-3-carboxamide] has an EC50 of 200 to 1000 nM.
`O=C(Nc1c[nH]c2cc(F)c(F)cc12)c1cn(Cc2ccc(C(F)(F)F)cc2)nn1` [Compound 105, N-(5,6-difluoro-1H-indol-3-yl)-1-(4-(trifluoromethyl)benzyl)-1H-1,2,3-triazole-4-carboxamide] gave an EC50 of 200 to 1000 nM.
